PubChem BioAssay AID179 (DTP/NCI, 2004)
Values joined by “and” are separate entries in the source; they are usually repeats but may differ in a detail not shown here. Equal entries are not always repeated. Active and inactive are the calls of the source.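 The calls were made as follows: active = compounds giving half or more protection of infected cells from virus-caused growth loss, again on retest; inactive = the rest.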

Tested on: CEM cells HIV-1 protection, formazan growth assay
Assay: NCI AIDS Antiviral Assay
Details: for IC50: measured here: growth of uninfected CEM cells
Method in brief: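 Category rules: moderately active means at least 50% protection on retest, and confirmed active means 100% protection reproducibly. The underlying data came from a formazan growth assay in HIV-1-infected CEM cells.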

| Structure (SMILES) | EC50 [µM] | IC50 | outcome |
| --- | --- | --- | --- |
| c1cc(-c2cnc(-c3ccc4c(c3)CCCO4)o2)ccn1 | > 200 | 50.1 µM | – |
| C[C@H]1COC2=C1C(=O)C(=O)c1c2ccc2c1CCCC2(C)C | > 200 | 8.91 µM | – |
| COC(=O)[C@H](Cc1ccccc1)NP(=O)(O)OCC1C=CC(n2cc(C)c(=O)[nH]c2=O)O1 (some centres undefined) | 8.71 | > 200 µM | – |
| CC(=O)OC(C)(C)CCC(=O)[C@](C)(O)[C@H]1[C@H](O)C[C@@]2(C)[C@@H]3CCc4c(cc(OC5OC(CO)C(O)C(O)C5O)c(O)c4C)C3(C)C(=O)C[C@]12C (some centres undefined) | > 200 | > 200 µM | – |
| C1=CNc2ccccc2N=C1 | > 200 | > 200 µM | – |
| Cc1nn(C(=O)c2ccccc2O)c2c1C(c1ccccc1)SC(N)=N2 (centres undefined) | > 2 | 0.417 µM | – |
| CCO/C(=C/C(=O)OC)NCCc1c[nH]c2ccccc12 | > 138 | 135 µM | – |
| N#CC1(C2SCCS2=O)C2=C(C(=O)c3ccccc3C2=O)N2CCCC21 (centres undefined) | – | – | inactive |
| O=C(O)C1C(c2c3ccc(=O)c(O)c-3oc3c(O)c(O)ccc23)C2(Cl)C(Cl)=C(Cl)C1(Cl)C2(Cl)Cl (centres undefined) | > 151 | > 151 µM | – |
| CC(=O)C1(N=Nc2ccc(S(=O)(=O)Nc3nnc(C)s3)cc2)CCOC1=O (centres undefined) | > 200 | > 200 µM | – |
| COC(=O)[C@]1(C)CCCC2(C)C3=C(CCC21)CC1(CC3)SCCS1 (some centres undefined) | > 186 | 74.1 µM | – |
| CC(=O)OC1(C#N)CC2OC1C1C2N1C(=O)c1ccccc1 (centres undefined) | > 316 | > 316 µM | – |
| CCOC(=O)C(CC#Cc1ccc(C#CCC(NC(C)=O)C(=O)OCC)cc1)NC(C)=O (centres undefined) | > 200 | > 200 µM | – |
| COc1ccc(NC(=O)CC(=O)N2N=C(N(CCC#N)c3ccc(Cl)cc3)CC2c2ccccc2)cc1 (centres undefined) | > 36.3 | > 36.3 µM | – |
| Clc1nc(Cl)c2sc(=[Se])sc2n1 | > 200 | 8.51 µM | – |
| Cc1noc(NS(=O)(=O)c2ccc(NC(=S)/N=C/C(C(=O)c3ccccc3)=C(\O)c3ccccc3)cc2)c1C | > 200 | 120 µM | – |
| Cc1c(-c2cc3n(n2)C(c2cccs2)C(C#N)=C(c2ccccc2)N3)c(=O)n(-c2ccccc2)n1C (centres undefined) | – | – | inactive |
| CSC1=C(C#N)C(=O)N(c2ccc(C)cc2)C(=O)C1C#N (centres undefined) | > 200 | 151 µM | – |
| COc1ccc(CCNC(=S)/N=C\C2=C(O)c3ccccc3C2=O)cc1OC | > 200 | > 200 µM | – |
| O=c1c(SCc2ccc(Cl)c(Cl)c2)c(SCc2ccc(Cl)c(Cl)c2)cnn1-c1ccccc1 | > 6.76 | > 6.76 µM | – |
| CCCCCCCCCCCCSC(=S)c1c(C)[nH]n(CCCCCCCCCCCC)c1=O | > 51.3 | > 51.3 µM | – |
| C/C(=N\NC(N)=S)c1sc(-n2nc(-c3ccccc3)cc2-c2ccccc2)nc1C | > 16.6 | > 16.6 µM | – |

| Structure (SMILES) | EC50 [µM] | IC50 | outcome |
| --- | --- | --- | --- |
| Cc1nc2ccc(Br)cc2c(=O)n1-c1ccc(NC2OC(CO)C(O)C(O)C2O)cc1 (centres undefined) | > 200 | > 200 µM and 195 µM | – |
| O=S1Cc2nc3ccccc3n2C1c1c(F)cccc1F (centres undefined) | > 117 | – | – |
| O=C(CNc1ccccc1C(=O)O)Nn1cnc2ccc(S(=O)(=O)Nc3ccccc3C(=O)O)cc2c1=O | > 200 | > 200 µM | – |
| CCOC(=O)c1ccc(Nc2nc3ccccc3nc2C(=O)OCC)cc1 | > 200 | > 200 µM | – |
| On1ccccc1=S | > 2 | 1.32 µM | – |
| CC(=O)/C(N=Nc1ccc(-n2c(C)nc3ccccc3c2=O)cc1)=C(/C)O | > 200 | > 200 µM | – |
| O=C1[C@@H]2C3SC(c4ccccc43)[C@@H]2C(=O)N1c1ccccc1 | – | – | inactive |
| CCCc1c(C(=O)OCC)[nH]c(-c2ccc(-c3[nH]c(C(=O)OCC)c(CCC)c3C(=O)OCC)s2)c1C(=O)OCC | > 4.68 | > 4.68 µM | – |
| CCn1nc(C)c2c1C(=O)NC(C)C(=O)N2 (centres undefined) | > 200 | > 200 µM | – |
| CC(C)N(CCCNc1c2ccccc2nc2cccc([N+](=O)[O-])c12)C(C)C | > 200 | 0.0631 µM | – |
| NC(=S)N/N=C(/C(=O)Nc1nc2ccc([N+](=O)[O-])cc2s1)C1C(=O)NC(=S)NC1=O | > 15.5 | > 15.5 µM | – |
| O=C(O)/C=C/c1ccc(O)cc1 | > 200 | > 200 µM | – |
| O=C(Nc1ccccc1)n1[nH]c(=O)n(-c2ccccc2)c1=O | > 200 | > 200 µM | – |
| COC(=O)C1CCC(=O)N1C(c1ccc(OC)cc1)c1ccc2c(c1)OCO2 (centres undefined) | > 200 | 11.5 µM | – |
| CN(C)c1nc(N(C)C)nc(N(C)CN(C)c2nc(N(C)C)nc(N(C)C)n2)n1 | > 50.1 | > 50.1 µM | – |
| O=[N+]([O-])c1ccc(CCc2ccc([N+](=O)[O-])cc2S(=O)(=O)O)c(S(=O)(=O)O)c1 | – | – | inactive |
| COc1ccc(N2C(=O)C(=O)N(c3ccc(N=Nc4ccccc4)cc3)C2=S)cc1 | > 200 | 11.7 µM | – |
| CC(C)(C)C(=O)OCC1OC(N=[N+]=[N-])C(OC(=O)C(C)(C)C)C(OC(=O)C(C)(C)C)C1OC(=O)C(C)(C)C (centres undefined) | > 200 | > 200 µM | – |
| O=S(=O)(c1ccccc1)C(Br)c1ccccc1 (centres undefined) | > 158 | > 158 µM | – |
| O=C(O)c1ccccc1C(=O)NC(Cc1cccc(NP(=O)(N2CC2)N2CC2)c1)C(=O)O (centres undefined) | 27.5 | > 200 µM | – |
| O=c1c(-c2ccccc2)c(SCCO)n(-c2ccccc2)c(=S)n1-c1ccccc1 | > 200 | > 200 µM | – |
| CC1(C)Cc2nnsc2C2=C1C(=O)CCS2 | – | – | inactive |

| Structure (SMILES) | EC50 [µM] | IC50 | outcome |
| --- | --- | --- | --- |
| C=C1C(=O)OC2/C=C(/CO)C3(O)CC(O)C(C)(CC(OC(=O)/C(C)=C/C)C12)O3 (centres undefined) | > 631 | 1.17 µM | – |
| O=C(OCC(Cl)(Cl)Cl)OCC(Cl)(Cl)Cl | > 200 | > 200 µM | – |
| O=C(CCCc1ccccc1)NO | – | – | inactive |
| O=C1/C(=C/c2cccc(O)c2)COc2ccccc21 | > 123 | 4.27 µM | – |
| O=C1CCC(=O)C(C(=O)CCC(=O)Nc2ccc(Cl)cc2)C1 (centres undefined) | – | – | inactive |
| NNC(=S)N1CCN(C(=S)NN)CC1 | > 200 | 15.1 µM | – |
| CC1Cc2cc(OCc3ccccc3)cc(OCc3ccccc3)c2[C@H](C)N1Cc1ccccc1 (some centres undefined) | > 200 | 14.5 µM | – |
| O=C(O)c1cccc[c]1[Sb](=[O])([OH])[OH] | > 200 | 87.1 µM | – |
| COC1(OC)CC2C=C(S(=O)(=O)c3ccccc3)C1N(Cc1ccccc1)C2=O (centres undefined) | – | – | inactive |
| COc1ccc(C2SC(N)=Nc3c2c(C)nn3C(=O)c2ccncc2)cc1OC (centres undefined) | 49 | 170 µM | – |
| COC(=O)C(=O)C(C(=O)C=C(C)C)C(=O)C(=O)Nc1ccc(C)cc1C (centres undefined) | > 100 | > 100 µM | – |
| N#Cc1ccnc(C(=O)N2CCCC2C(=O)O)c1 (centres undefined) | > 200 | > 200 µM | – |
| CCCCc1ccc(Nc2nc(Cl)c3ccn(C4CC(Oc5ccc(C)cc5)C(COc5ccc(C)cc5)O4)c3n2)cc1 (centres undefined) | > 200 | > 200 µM | – |
| CSc1nc(-c2ccc(Cl)cc2)c(C#N)c(=O)[nH]1 | – | – | inactive |
| CC1(C)[C@@H]2CC[C@]13CC(=O)O[C@@H]3C2 | > 724 | > 724 µM | – |
| O=C1CSC(c2ccccc2[N+](=O)[O-])N1c1ccc(-n2c(-c3ccccc3)nc3ccccc3c2=O)cc1 (centres undefined) | > 200 | 126 µM | – |
| Cc1c(/C=N/N(C)C)oc2c1cc(O)c1ncccc12 | > 37.2 | 2.51 µM | – |
| S=C1NC(/C=C/c2ccccc2)Nc2ccccc21 (centres undefined) | > 26.9 | > 26.9 µM | – |
| CCOC(=O)c1c(SC(=O)c2ccc(Cl)cc2)n(-c2ccccc2)c(=S)n(-c2ccccc2)c1=O | > 200 | 141 µM | – |
| Cn1c(=O)c2[nH]c(NN)nc2n(C)c1=O | > 200 | 105 µM | – |
| CC(C)[Si](OC1=C(C(=O)N(C)c2ccccc2Cl)CCCC1)(C(C)C)C(C)C | > 200 | 16.6 µM | – |
| CCN(CC)C(=O)c1cc(=O)c(C)c2oc3c(C)c(O)c(N)c(C(=O)N(CC)CC)c3nc1-2 | > 200 | 110 µM | – |

| Structure (SMILES) | EC50 [µM] | IC50 | outcome |
| --- | --- | --- | --- |
| COC(=O)C(Cc1c[nH]c2ccccc12)NP(=O)(O)OCC1OC(n2ccc(N)nc2=O)C(O)C1O (centres undefined) | > 200 | 5.25 µM | – |
| Cc1ccc(C2=NN(C)COC2C(F)(F)F)cc1 (centres undefined) | > 28.2 | > 28.2 µM | – |
| COC(=O)C1=CCC(n2cnc3c(N)ncnc32)CC1 (centres undefined) | > 912 | 110 µM | – |
| COc1cc(C)cc2c(-c3c(O)cc(O)c4c3C[C@H](C)N[C@H]4C)cc(-c3cc(-c4c(O)cc(O)c5c4C[C@H](C)N[C@H]5C)c4cc(C)cc(OC)c4c3O)c(O)c12 | 14.1 | 95.5 µM | – |
| O=C(c1ccccc1)c1nnn(Cc2cccc(Cl)c2)c1C(=O)c1ccccc1 | > 12.9 | > 12.9 µM | – |
| COC(=O)CCn1c(N)nc2c1c(=O)n(C)c(=O)n2C | > 468 | > 468 µM | – |
| O=C(O)CC(SSCc1ccccc1)C(=O)O (centres undefined) | > 200 | > 200 µM | – |
| CC(C)(C)C1CCC2c3c([nH]c4ccccc34)C3C(=O)N(c4ccc(Cl)cc4)C(=O)C3C2C1 (centres undefined) | > 200 | > 100 µM | – |
| Cc1[nH]n(C(=N)N)c(=O)c1CCO | > 200 | > 200 µM | – |
| NC(=O)OCC(O)COc1ccc(Cl)cc1 (centres undefined) | > 200 | > 200 µM | – |
| O=c1ssc(=Nc2ccc(Cl)cc2)n1-c1ccc(Cl)cc1 | > 200 | 8.91 µM | – |
| CCN(CC)Cc1cc(Nc2c3ccccc3nc3c4ccccc4n(C)c23)cc(CN(CC)CC)c1O | > 155 | 3.09 µM | – |
| O=CN1CCN(c2ccc3ccc(=O)[nH]c3n2)CC1 | > 200 | > 200 µM | – |
| Cc1ccc(/C=C2\Cc3cccc(C)c3C2=O)c(C(=O)O)c1 | > 200 | 105 µM | – |
| COc1ccc(-c2nc(-c3ccc(OC)cc3)n(-c3ccccc3)n2)cc1 | > 200 | 58.9 µM | – |
| CCOc1ccccc1NC(=O)C(=O)C(c1ccccc1)S(=O)(=O)Cc1ccccc1 (centres undefined) | > 200 | 120 µM | – |
| CC1(C)C[C@H]2[C@H](O)C(CO)=C3C(=O)[C@@H](O)[C@]3(C)[C@H]2C1 | – | – | inactive |
| Cc1ccc(NC(=O)CC(=O)n2nc(-c3ccccc3)c(N=Nc3ccc(Cl)cc3)c2-c2ccccc2)cc1 | > 9.77 | > 9.77 µM | – |
| CCCCN(O)[C@@H]1CC(n2cc(C)c(=O)[nH]c2=O)OC1CO[Si](C)(C)C(C)(C)C (some centres undefined) | > 200 | 83.2 µM | – |
